≈ marks a conversion by molar mass, not a printed value. Read-outs that look alike come from different tables or passages of the source.
Experiment: Solubility in clomazone or propylene glycol by visual verification (turbidity)
Type: physicochemical
Settings: organic solvent or mixture, thermodynamic from solid
Description: All solubilities mentioned in the present document were measured through visual verification. In a known quantity of clomazone or propylene glycol at a desired temperature, the solute (e.g. hexazinone or diuron) was added at a rate of 0.2g/5min.

Compound | solubility (23 °C, Solubility of Hexazinone in Clomazone) | solubility (23 °C, Solubility of Hexazinone in Propileneglycol) | solubility (40 °C, Solubility of Hexazinone in Clomazone) | solubility (40 °C, Solubility of Hexazinone in Propileneglycol) | solubility (54 °C, Solubility of Hexazinone in Clomazone) | solubility (54 °C, Solubility of Hexazinone in Propileneglycol) | solubility (23 °C, 23 °C, read-out: Solubility of Diuron in Clomazone) | solubility (40 °C, 40 °C, read-out: Solubility of Diuron in Clomazone) | solubility (54 °C, 54 °C, read-out: Solubility of Diuron in Clomazone)
CN(C)c1nc(=O)n(C2CCCCC2)c(=O)n1C [Hexazinone] | 53 mg/mL (≈ 210 mM) | 510 mg/mL (≈ 2020 mM) | 62 mg/mL (≈ 246 mM) | 580 mg/mL (≈ 2300 mM) | 73 mg/mL (≈ 289 mM) | 630 mg/mL (≈ 2500 mM) | – | – | –
CN(C)C(=O)Nc1ccc(Cl)c(Cl)c1 [Diuron] | – | – | – | – | – | – | 28 mg/mL (≈ 120 mM) | 36 mg/mL (≈ 154 mM) | 61 mg/mL (≈ 262 mM)
